Test results reported in paper PMC6263113 (Journal of Enzyme Inhibition and Medicinal Chemistry, 2018).
Entries after “also recorded” stand apart in the source; their conditions may differ.

Tests used:
AChE [1] = biological target: T1, AChE (Rattus norvegicus, UniProt P37136); assay: In vitro AChE activity in rat cerebral cortex homogenate; type: biochemical; details: read-out: inhibition of AChE activity
T1 sequence (P37136 32-614): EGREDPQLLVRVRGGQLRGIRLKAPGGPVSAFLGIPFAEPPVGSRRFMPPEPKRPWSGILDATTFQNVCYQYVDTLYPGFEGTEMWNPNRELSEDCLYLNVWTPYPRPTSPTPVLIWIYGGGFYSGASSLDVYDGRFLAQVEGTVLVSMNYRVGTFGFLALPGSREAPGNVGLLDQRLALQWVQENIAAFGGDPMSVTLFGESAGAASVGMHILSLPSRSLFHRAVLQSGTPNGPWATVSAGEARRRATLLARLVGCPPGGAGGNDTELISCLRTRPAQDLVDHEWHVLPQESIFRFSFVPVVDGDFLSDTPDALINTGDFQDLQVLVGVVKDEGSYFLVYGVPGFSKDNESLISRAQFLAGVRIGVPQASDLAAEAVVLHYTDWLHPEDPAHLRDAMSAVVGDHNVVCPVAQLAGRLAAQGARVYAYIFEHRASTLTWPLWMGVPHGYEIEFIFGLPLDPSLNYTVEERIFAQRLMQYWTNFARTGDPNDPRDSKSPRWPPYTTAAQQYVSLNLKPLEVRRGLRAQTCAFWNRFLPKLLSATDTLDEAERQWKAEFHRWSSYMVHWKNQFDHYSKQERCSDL

AChE [2] = biological target: T1, AChE; assay: In vitro AChE activity in rat hippocampus homogenate; type: biochemical
MRC-5 (human fibroblast) = assay: Cytotoxicity in fibroblast culture by SRB test; type: cell-based; details: 24 h
[3] = read-out: inhibition of AChE activity

SMILES | inhibition at 10 µM (AChE [1]) | IC50 (AChE [2]) | inhibition at 50 µM (AChE [2]; [3]) | inhibition at 100 µM (AChE [2]; [3]) | cytotoxicity (cell proliferation vs DMSO control) (MRC-5 (human fibroblast); 50 µM (lowest concentration tested)) | cytotoxicity (cell proliferation vs DMSO control) (MRC-5 (human fibroblast); 100 µM) | cytotoxicity in human fibroblast cell (overall statement) (MRC-5 (human fibroblast))
O=C1c2ccccc2SC(c2ccccc2)N1CCCN1CCCCC1 (stereo not drawn) [5Bb, 2-phenyl-3-(3-(piperidin-1-yl)propyl)-2,3-dihydro-4H-benzo[e][1,3]thiazin-4-one] | 47.2% | 39.8 µM | 50% |  |  |  | 
O=C1c2ccccc2SC(c2ccc([N+](=O)[O-])cc2)N1CCN1CCOCC1 (stereo not drawn) [5Ad, 3-(2-morpholinoethyl)-2-(4-nitrophenyl)-2,3-dihydro-4H-benzo[e][1,3]thiazin-4-one] |  | 70.6 µM |  | 46.4% |  |  | 
O=C1c2ccccc2SC(c2ccc([N+](=O)[O-])cc2)N1CCN1CCCCC1 (stereo not drawn) [5Cd, 2-(4-nitrophenyl)-3-(2-(piperidin-1-yl)ethyl)-2,3-dihydro-4H-benzo[e] [1,3]thiazin-4-one] |  | 119 µM |  |  | showed toxicity |  | 
O=C1c2ccccc2SC(c2ccc(F)cc2)N1CCCN1CCCCC1 (stereo not drawn) [5Bf, 2-(4-fluorophenyl)-3-(3-(piperidin-1-yl)propyl)-2,3-dihydro-4H-benzo[e][1,3]thiazin-4-one] |  | 61.7 µM |  |  |  |  | 
O=C1c2ccccc2SC(c2ccc([N+](=O)[O-])cc2)N1CCCN1CCCCC1 (stereo not drawn) [5Bd, 2-(4-nitrophenyl)-3-(3-(piperidin-1-yl)propyl)-2,3-dihydro-4H-benzo[e] [1,3]thiazin-4-one] |  | 39.8 µM |  |  |  | no cytotoxicity; also recorded: noncytotoxic | low cytotoxicity
CCCCC1Sc2ccccc2C(=O)N1CCCN1CCCCC1 (stereo not drawn) [5Ba, 2-butyl-3-(3-(piperidin-1-yl)propyl)-2,3-dihydro-4H-benzo[e][1,3]thiazin-4-one] | 27.1% | 73.3 µM |  | 46.2% |  | noncytotoxic | 
